Data published in patent US8575091B1, “Amylin analogues and pharmaceutical compositions thereof” (Novo Nordisk A/S, priority 2012, dated 2013).
Numbered stars: 1 amine (or outer) side, 2 acyl side, 3 side chain; on linkers, the order of the positions; unused ones are H or OH. Bridge positions count the residues as written; N and C are the ends. Side chains are listed from the residue outwards. Peptide text beside a SMILES is read from it. * marks the point of attachment. C20 diacid = O=C(O)CCCCCCCCCCCCCCCCCCC(=O)*; γGlu = O=C(O)[C@H](CCC(=O)[*:2])N[*:1]; AEEA = NCCOCCOCC(=O)O

Assays:
human amylin receptor = target: T1, human amylin receptor (Homo sapiens, UniProt O60896+P30988); test: Assay (V) binding to the human amylin receptor (SPA, 125I-rat amylin); details: human amylin receptor membranes, SPA; read-out: hAmylin-R bind IC50
T1 construct: expressed in transfected cells
T1 sequence (P30988 25-474): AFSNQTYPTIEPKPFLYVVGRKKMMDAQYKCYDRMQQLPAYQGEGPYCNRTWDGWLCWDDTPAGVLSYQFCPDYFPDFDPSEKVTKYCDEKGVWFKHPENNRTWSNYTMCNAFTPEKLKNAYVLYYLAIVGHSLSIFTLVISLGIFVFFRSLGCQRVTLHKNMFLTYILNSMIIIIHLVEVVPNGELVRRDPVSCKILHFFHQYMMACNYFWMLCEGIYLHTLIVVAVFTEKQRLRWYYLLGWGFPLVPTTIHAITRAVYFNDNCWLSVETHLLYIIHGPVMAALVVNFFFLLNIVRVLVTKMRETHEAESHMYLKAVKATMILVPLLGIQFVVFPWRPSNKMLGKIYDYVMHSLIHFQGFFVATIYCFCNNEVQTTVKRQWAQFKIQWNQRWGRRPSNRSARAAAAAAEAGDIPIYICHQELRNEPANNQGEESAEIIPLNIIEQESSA
T1 sequence (O60896 24-148 partner): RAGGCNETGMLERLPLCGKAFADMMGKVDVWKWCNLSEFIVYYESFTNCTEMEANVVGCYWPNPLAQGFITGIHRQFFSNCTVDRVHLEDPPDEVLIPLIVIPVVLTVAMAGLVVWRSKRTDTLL
How it was run: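 SPA competition binding on membranes from Amylin 3(a)/CRE-luc cells, 35 ng/μL membranes with 0.05 mg/well beads. Buffer 50 mM Hepes pH 7.4, 1 mM CaCl2, 5 mM MgCl2, 0.1% OA, 0.02% Tween20. IC50 from one-site competition fit as affinity measure.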

[1] = target: T2, human calcitonin receptor (Homo sapiens, UniProt P30988); test: Assay (II)a functional assay, human calcitonin receptor (CRE luciferase, BHK cells);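 also: luminescence from a CRE-driven luciferase reporter, read by single photon counting after cells were exposed to test samples for 3 h at 37 °C under 5% CO2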; type: cell-based; details: read-out: hCTR funct. EC50
T2 construct: expressed in transfected cells
T2 sequence (P30988 25-474): T1 sequence (P30988 25-474)

[2] = target: T3, human amylin receptor (amylin 3(a) receptor: human calcitonin receptor + RAMP-3) (Homo sapiens, UniProt O60896+P30988); test: Assay (II)a functional assay, human amylin receptor (CRE luciferase, BHK cells); type: cell-based; details: for EC50: functional assay, human amylin receptor, read-out: hAmylin-R funct. EC50
T3 construct: expressed in transfected cells
T3 sequence (P30988 25-474): T1 sequence (P30988 25-474)
T3 sequence (O60896 24-148 partner): T1 sequence (O60896 24-148 partner)

[3] = target: T2, human calcitonin receptor; test: Assay (VII) binding to the human calcitonin receptor (SPA, 125I-Calcitonin); details: read-out: hCTR bind IC50;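 also: cell membranes coupled to SPA beads, competitive displacement read by scintillation counting, IC50 derived from a one-site competition fit as a measure of receptor affinity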
[4] = Assay (IV) determination of solubility; type: physicochemical; details: for Solubility pH 6.5 Concentration (μM): pH 6.5, 18 hours room temperature; for Solubility pH 7.0 Concentration (μM): pH 7.0, 18 hours room temperature; for Solubility pH 7.5 Concentration (μM): pH 7.5, 18 hours room temperature; for Solubility pH 8.0 Concentration (μM): pH 8.0, 18 hours room temperature
Experimental: Assay (IV)—Determination of Solubility
The polypeptide was dissolved in water at ˜500 nmol/ml and mixed 1:1 with a series of buffers (100 mM glycylglycine pH 3.0, 100 mM glycylglycine pH 4.0, 100 mM glycylglycine pH 5.0, 100 mM bistrispropane pH 6.0, 100 mM bistrispropane pH 6.5, 100 mM bistrispropane pH 7.0, 100 mM bistrispropane pH 7.5, 100 mM bistrispropane pH 8.0). After 18 hours at room temperature the samples were centrifuged and the polypeptide concentration determined by UPLC.

[5] = Table 6, human functional selectivity (hCTR EC50 / hAmylin-R EC50)
[6] = Table 6a, human functional selectivity (hCTR EC50 / hAmylin-R EC50), at least 5
[7] = Table 6j, hCTR funct. EC50 / hAmylin-R funct. EC50
[8] = Table 6k, hCTR funct. EC50 / hAmylin-R funct. EC50

| SMILES | IC50 (human amylin receptor) [nM] | EC50 [1] [nM] | EC50 [2] [nM] | IC50 [3] [nM] | Solubility pH 6.5 Concentration (μM) [4] | Solubility pH 7.0 Concentration (μM) [4] | Solubility pH 7.5 Concentration (μM) [4] [μM] | Solubility pH 8.0 Concentration (μM) [4] [μM] | Ratio hCT/hAmylin funct. [2, 5] | Ratio hCT/hAmylin funct. [2, 6] | Ratio hCT/hAmylin funct. [2, 7] | Ratio hCT/hAmylin funct. [2, 8] |
| --- | --- | --- | --- | --- | --- | --- | --- | --- | --- | --- | --- | --- |
| CC[C@H](C)[C@H](NC(=O)[C@H](C)NC(=O)CNC(=O)[C@H](Cc1ccccc1)NC(=O)[C@H](CC(N)=O)NC(=O)[C@@H]1CCCN1C(=O)[C@H](CO)NC(=O)[C@H](CO)NC(=O)[C@H](Cc1c[nH]cn1)NC(=O)[C@H](CCCNC(=N)N)NC(=O)[C@H](CC(C)C)NC(=O)[C@H](Cc1ccccc1)NC(=O)[C@H](CC(N)=O)NC(=O)[C@H](C)NC(=O)[C@H](CC(C)C)NC(=O)[C@H](CCCNC(=N)N)NC(=O)[C@H](CCC(N)=O)NC(=O)[C@@H](NC(=O)[C@H](C)NC(=O)[C@@H]1CSSC[C@H](NC(=O)[C@@H](N)CCCCNC(=O)COCCOCCNC(=O)CC[C@H](NC(=O)CCCCCCCCCCCCCCCCCCC(=O)O)C(=O)O)C(=O)N[C@@H](CC(N)=O)C(=O)N[C@@H]([C@@H](C)O)C(=O)N[C@@H](C)C(=O)N[C@@H]([C@@H](C)O)C(=O)N1)[C@@H](C)O)C(=O)N1CCC[C@H]1C(=O)N[C@@H](CO)C(=O)N[C@@H](CO)C(=O)N[C@H](C(=O)N[C@@H](CC(N)=O)C(=O)N[C@H](C(=O)NCC(=O)N1CCC[C@H]1C(=O)N[C@@H](Cc1c[nH]cn1)C(=O)N[C@H](C(=O)N[C@@H](Cc1ccc(O)cc1)C(N)=O)[C@@H](C)O)C(C)C)[C@@H](C)O [Example 58] (H-K([AEEA-γGlu-C20 diacid])CNTATCATQRLANFLRHSSPNFGAIPSSTNVGPHTY-NH2; disulfide 2-7) | 0.088 | 1.03 | 0.047 | 9.63 | ≧200 μM | ≧200 μM | 96 | 48 |  |  |  |  |
| CC[C@H](C)[C@H](NC(=O)[C@H](C)NC(=O)CNC(=O)[C@H](Cc1ccccc1)NC(=O)[C@H](CC(N)=O)NC(=O)[C@@H]1CCCN1C(=O)[C@H](CO)NC(=O)[C@H](CO)NC(=O)[C@H](Cc1c[nH]cn1)NC(=O)[C@H](CCCNC(=N)N)NC(=O)[C@H](CC(C)C)NC(=O)[C@H](Cc1ccccc1)NC(=O)[C@H](CC(N)=O)NC(=O)[C@H](C)NC(=O)[C@H](CC(C)C)NC(=O)[C@H](CCCNC(=N)N)NC(=O)[C@H](CCC(N)=O)NC(=O)[C@@H](NC(=O)[C@H](C)NC(=O)[C@@H]1CSSC[C@H](NC(=O)[C@@H](N)CCCCNC(=O)CC[C@H](NC(=O)CCCCCCCCCCCCCCCCCCC(=O)O)C(=O)O)C(=O)N[C@@H](CC(N)=O)C(=O)N[C@@H]([C@@H](C)O)C(=O)N[C@@H](C)C(=O)N[C@@H]([C@@H](C)O)C(=O)N1)[C@@H](C)O)C(=O)N1CCC[C@H]1C(=O)N[C@@H](CO)C(=O)N[C@@H](CO)C(=O)N[C@H](C(=O)N[C@@H](CC(N)=O)C(=O)N[C@H](C(=O)NCC(=O)N[C@@H](Cc1c[nH]cn1)C(=O)N[C@@H](CC(N)=O)C(=O)N[C@H](C(=O)N[C@@H](Cc1ccc(O)cc1)C(N)=O)[C@@H](C)O)C(C)C)[C@@H](C)O [Example 77] | 0.428 | 5.4 | 0.145 | 50.7 | ≧200 μM | ≧200 μM | 147 | 59 |  |  |  |  |
| CC[C@H](C)[C@H](NC(=O)[C@H](C)NC(=O)CNC(=O)[C@H](Cc1ccccc1)NC(=O)[C@H](CC(N)=O)NC(=O)[C@@H]1CCCN1C(=O)[C@H](CO)NC(=O)[C@H](CO)NC(=O)[C@H](Cc1c[nH]cn1)NC(=O)[C@H](CCCNC(=N)N)NC(=O)[C@H](CC(C)C)NC(=O)[C@H](Cc1ccccc1)NC(=O)[C@H](CC(N)=O)NC(=O)[C@H](C)NC(=O)[C@H](CC(C)C)NC(=O)[C@H](CCCNC(=N)N)NC(=O)[C@H](CCC(N)=O)NC(=O)[C@@H](NC(=O)[C@H](C)NC(=O)[C@@H]1CSSC[C@H](NC(=O)[C@@H](N)CCCCNC(=O)COCCOCCNC(=O)COCCOCCNC(=O)CC[C@H](NC(=O)CCCCCCCCCCCCCCCCCCC(=O)O)C(=O)O)C(=O)N[C@@H](CC(N)=O)C(=O)N[C@@H]([C@@H](C)O)C(=O)N[C@@H](C)C(=O)N[C@@H]([C@@H](C)O)C(=O)N1)[C@@H](C)O)C(=O)N1CCC[C@H]1C(=O)N[C@@H](CO)C(=O)N[C@@H](CO)C(=O)N[C@H](C(=O)N[C@@H](CC(N)=O)C(=O)N[C@H](C(=O)NCC(=O)N[C@@H](Cc1c[nH]cn1)C(=O)N[C@@H](CC(N)=O)C(=O)N[C@H](C(=O)N[C@@H](Cc1ccc(O)cc1)C(N)=O)[C@@H](C)O)C(C)C)[C@@H](C)O [Example 97] | 0.568 | 11.7 | 0.356 | 58.9 | ≧200 μM | ≧200 μM | 88 | 43 | 33.0 | 33.0 | 33.0 | 33.0 |
| CC[C@H](C)[C@H](NC(=O)[C@H](C)NC(=O)CNC(=O)[C@H](Cc1ccccc1)NC(=O)[C@H](CC(N)=O)NC(=O)[C@@H]1CCCN1C(=O)[C@H](CO)NC(=O)[C@H](CO)NC(=O)[C@H](Cc1c[nH]cn1)NC(=O)[C@H](CCCNC(=N)N)NC(=O)[C@H](CC(C)C)NC(=O)[C@H](Cc1ccccc1)NC(=O)[C@H](Cc1c[nH]cn1)NC(=O)[C@H](C)NC(=O)[C@H](CC(C)C)NC(=O)[C@H](CCCNC(=N)N)NC(=O)[C@H](CCC(N)=O)NC(=O)[C@@H](NC(=O)[C@H](C)NC(=O)[C@@H]1CSSC[C@H](NC(=O)[C@H](CCCNC(=N)N)NC(=O)CNC(=O)CC[C@H](NC(=O)CCCCCCCCCCCCCCCCCCC(=O)O)C(=O)O)C(=O)N[C@@H](CC(N)=O)C(=O)N[C@@H]([C@@H](C)O)C(=O)N[C@@H](C)C(=O)N[C@@H]([C@@H](C)O)C(=O)N1)[C@@H](C)O)C(=O)N1CCC[C@H]1C(=O)N[C@@H](CO)C(=O)N[C@@H](CO)C(=O)N[C@H](C(=O)N[C@@H](CC(N)=O)C(=O)N[C@H](C(=O)NCC(=O)N[C@@H](Cc1c[nH]cn1)C(=O)N[C@@H](CC(N)=O)C(=O)N[C@H](C(=O)N[C@@H](Cc1ccc(O)cc1)C(N)=O)[C@@H](C)O)C(C)C)[C@@H](C)O [Example 100] ({C20 diacid-γGlu}-GRCNTATCATQRLAHFLRHSSPNFGAIPSSTNVGHNTY-NH2; disulfide 3-8) | 1.02 | 1.73 | 0.253 | 66.3 | ≧200 μM | 109 μM | 26 | 31 | 6.8 | 6.8 | 6.8 | 6.8 |
